The results in this text go back to patent US9636021B2, “Flavonoid compounds of low toxicity for biological imaging applications” (The University of Akron, priority 2014, dated 2017).

Data set [1] is described as follows: absorbance and fluorescence spectra in DMSO. Format: physicochemical. An excerpt: The absorbance and fluorescence spectra of compounds 1-6 in dimethyl sulfoxide (DMSO) were investigated and the results are in Table 1.
In data set [2] the target is bovine serum albumin (BSA) (Bos taurus, UniProt P02769). Briefly: fluorescence turn-on with BSA in PBS buffer. In kind it is binding. Conditions: for detection limit (10% increase in fluorescence emission) / visual recognizable detection limit (S/N above 3:1): BSA; for F(+)/F(−) fluorescence intensity with BSA / without BSA: BSA 1.0 mg/ml; for F(+)/F(−) fluorescence intensity with BSA / without BSA / λabs(+) / λem(+) / λabs(−) / λem(−): 10 μM dye; for F(+)/F(−) fluorescence intensity with BSA / without BSA / fluorescence in the absence of BSA / λabs(+) / λem(+) / λabs(−) / λem(−): 10 mM PBS, 0.5% DMSO, pH 7.4; for fluorescence in the absence of BSA: aqueous buffer; for λabs(+) / λem(+): with BSA 1.0 mg/ml; for λabs(−) / λem(−): without BSA. On the procedure: In the aqueous buffer (0.5% DMSO, 10 mM of PBS, pH=7.4), the BSA binding-induced fluorescence turn-on was so large that it could be easily seen by naked eye. […] The intramolecular charge transfer along the D-A conjugated backbone plays a very important role in the environment-sensitivity of the flavone. All the evidence consistently pointed to the flavone dye entering the hydrophobic site of BSA.
bovine serum albumin (BSA), sequence (P02769 25-607): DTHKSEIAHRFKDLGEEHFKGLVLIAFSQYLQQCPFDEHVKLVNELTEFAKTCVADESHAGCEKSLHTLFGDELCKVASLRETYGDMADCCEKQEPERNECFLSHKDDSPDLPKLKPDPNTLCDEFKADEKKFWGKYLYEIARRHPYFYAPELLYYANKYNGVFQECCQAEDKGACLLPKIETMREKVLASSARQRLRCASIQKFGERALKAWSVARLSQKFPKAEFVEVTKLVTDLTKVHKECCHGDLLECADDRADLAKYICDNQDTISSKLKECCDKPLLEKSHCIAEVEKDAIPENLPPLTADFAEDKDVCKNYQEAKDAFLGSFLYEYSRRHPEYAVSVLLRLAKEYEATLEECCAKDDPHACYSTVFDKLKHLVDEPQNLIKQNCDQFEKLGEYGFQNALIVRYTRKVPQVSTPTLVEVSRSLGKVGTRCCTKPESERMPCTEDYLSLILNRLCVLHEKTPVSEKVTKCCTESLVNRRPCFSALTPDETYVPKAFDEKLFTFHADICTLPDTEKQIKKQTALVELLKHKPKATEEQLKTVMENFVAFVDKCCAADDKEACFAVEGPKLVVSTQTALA
Generally, the detection limit can be defined as the analyte concentration at which a 10% increase in fluorescence emission can be measured.
Therefore, the detection limits of compounds 1-6 were 2.6, 0.14, 0.59, 0.09, 14, and 3.4 μg/mL, respectively. For Off/On type fluorescent sensor, the Signal-to-Noise (S/N) ratio above 3:1 is considered reliable for visual evaluation. The visual recognizable detection limits of compounds 1-6 were calculated as 78, 4.2, 17.7, 2.7, 420, and 102 μg/mL, respectively. The reference range for serum albumin concentration in human blood plasma is approximately 35-50 mg/mL. Even in fish, the concentration of serum albumins can reach 0.5-5 mg/mL. The detection limits of the compounds were much lower than serum albumin concentration, indicating the capability for actual blood sample testing.

A further data set deals with dye-BSA complexes (Bos taurus, UniProt P02769). Description: photostability of dye-BSA complexes under continuous UV irradiation. In kind it is physicochemical, bovine. Conditions: 365 nm, 500 μW/cm2, 10 μM dye, 1.0 mg/mL BSA. On the procedure:
The photostability of flavone dyes 1-6 in the presence of BSA was also examined to evaluate the application for long-term imaging. The dye-BSA complexes (10 μM of compounds 1-6, 1.0 mg/mL of BSA in 10 mM PBS buffer containing 0.5% DMSO, pH=7.4) were placed in cuvette cells, then were continuously irradiated under a hand-held UV lamp (λ=365 nm, 500 μW/cm2).

dye-BSA complexes, sequence (P02769 25-607, one chain of several): as the sequence (P02769 25-607) above

Turning to `Cc1ccc2oc(-c3ccc(N(C)C)cc3)c(O)c(=O)c2c1` [compound 3, 2-(4-(dimethylamino)phenyl)-3-hydroxy-6-methyl-4H-chromen-4-one], in data set [1], the Φ was determined as 11.0% and the λabs is on record as 404 nm. Moreover, in data set [2], the “detection limit (10% increase in fluorescence emission)” value is 0.59 µg/mL, the “visual recognizable detection limit (S/N above 3:1)” value (from here on “visual recognizable detection limit”) worked out at 17.7 µg/mL, the “F(+)/F(−) fluorescence intensity with BSA / without BSA” value is 170 and the “fluorescence in the absence of BSA” value was “almost no fluorescence”. For the same compound, in data set [2], the “λabs(+)” value is reported as 409 nm, the “λem(+)” value is 552 nm, the “λabs(−)” value is recorded as 400 nm and the “λem(−)” value stood at 582 nm.

Take `CCOCc1ccc2oc(-c3ccc(N(C)C)cc3)c(O)c(=O)c2c1` [compound 2, 2-(4-(dimethylamino)phenyl)-6-(ethoxymethyl)-3-hydroxy-4H-chromen-4-one]: in data set [1], the Φ stood at 14.1% and the λabs worked out at 403 nm. In addition, in data set [2], the “detection limit (10% increase in fluorescence emission)” value is 0.14 µg/mL, the “visual recognizable detection limit” value was 4.2 µg/mL, the “F(+)/F(−) fluorescence intensity with BSA / without BSA” value came to 740 and the “fluorescence in the absence of BSA” value is listed as “almost no fluorescence”. Moreover, in data set [2], the “λabs(+)” value amounted to 415 nm, the “λem(+)” value was 506 nm, the “λabs(−)” value was found to be 410 nm and the “λem(−)” value came out at 555 nm.

As for `CC(=O)Nc1ccc(-c2oc3ccccc3c(=O)c2O)cc1` [compound 5, N-(4-(3-hydroxy-4-oxo-4H-chromen-2-yl)phenyl)acetamide], in data set [1], the Φ is recorded as 5.4%, the λabs stood at 363 nm and the λem was found to be 505 nm. Also, in data set [2], the “detection limit (10% increase in fluorescence emission)” value turned out to be 14 µg/mL, the “visual recognizable detection limit” value turned out to be 420 µg/mL, the “F(+)/F(−) fluorescence intensity with BSA / without BSA” value turned out to be 7.0 and the “λabs(+)” value came out at 365 nm. In addition, in data set [2], the “λem(+)” value worked out at 514 nm, the “λabs(−)” value came out at 357 nm and the “λem(−)” value came out at 452 nm. The “photostability under UV irradiation” value at dye-BSA complexes is listed as “fluorescence quenching”.

Consider `Nc1ccc(-c2oc3ccccc3c(=O)c2O)cc1` [compound 6, 2-(4-aminophenyl)-3-hydroxy-4H-chromen-4-one], for which, in data set [1], the Φ amounted to 7.2% and the λabs turned out to be 394 nm. In data set [2], the “detection limit (10% increase in fluorescence emission)” value turned out to be 3.4 µg/mL, the “visual recognizable detection limit” value came to 102 µg/mL, the “F(+)/F(−) fluorescence intensity with BSA / without BSA” value turned out to be 29 and the “λabs(+)” value is on record as 386 nm. Besides, in data set [2], the “λem(+)” value turned out to be 512 nm, the “λabs(−)” value is 373 nm and the “λem(−)” value is recorded as 522 nm. Moreover, the “photostability under UV irradiation” value at dye-BSA complexes is reported as “fluorescence quenching”.
